Reference: ChEMBL document CHEMBL3868595, “Plazomicin is effective in a non-human primate pneumonic plague model” (Bioorg Med Chem, 2016)

Experiments:
[1] = test system: African green monkey; assay: Toxicity in African green monkey 7337 model infected with Yersinia pestis Colorado 92 assessed as serum gamma glutamyl-transferase level at 25 mg/kg, iv administered within 6 hrs post onset of sustained fever as 30 mins infusion for 10 days (reference value: 67 IU/L); format: organism-based; settings: chlorocebus sabaeus, in vivo
[2] = test system: African green monkey; assay: Toxicity in African green monkey assessed as effect on serum creatinine level at 25 mg/kg administered as iv infusion twice daily for 7 consecutive days measured on day 1 by LC-MS/MS analysis; format: organism-based; settings: chlorocebus sabaeus, in vivo
[3] = test system: Yersinia pestis; assay: Antibacterial activity against Yersinia pestis Colorado 92 infected in African green monkey 8047 model assessed as bacterial burden in brain at 6.25 mg/kg, iv administered within 6 hrs post onset of sustained fever as 30 mins infusion for 10 days (reference value: 1.9 10^6CFU/g); format: functional, CO92
[4] = Elimination half life in African green monkey blood at 25 mg/kg administered as iv infusion twice daily for 7 consecutive days measured on day 7 by LC-MS/MS analysis; format: ADME, organism-based; settings: chlorocebus aethiops, read-out: beta t1/2 (converted)
[5] = test system: African green monkey; assay: Toxicity in African green monkey B6428 model infected with Yersinia pestis Colorado 92 assessed as serum creatinine level at 25 mg/kg, iv administered within 6 hrs post onset of sustained fever as 30 mins infusion for 10 days (reference value: 0.8 mg/dl); format: organism-based; settings: chlorocebus sabaeus, in vivo
[6] = test system: Yersinia pestis; assay: Antibacterial activity against Yersinia pestis Colorado 92 infected in African green monkey B6436 model assessed as bacterial burden in tracheobronchial lymph nodes at 25 mg/kg, iv administered within 6 hrs post onset of sustained fever as 30 mins infusion for 5 days (reference value: 7.7 10^9CFU/g); format: functional, CO92, Lymph node
[7] = test system: Yersinia pestis; assay: Antibacterial activity against Yersinia pestis Colorado 92 infected in African green monkey B6960 model assessed as bacterial burden in liver at 6.25 mg/kg, iv administered within 6 hrs post onset of sustained fever as 30 mins infusion for 5 days (reference value: 5.2 10^8CFU/g); format: functional, CO92
[8] = test system: Yersinia pestis; assay: Antibacterial activity against Yersinia pestis Colorado 92 infected in African green monkey B6672 model assessed as bacterial burden in kidney at 12.5 mg/kg, iv administered within 6 hrs post onset of sustained fever as 30 mins infusion for 5 days (reference value: 7.1 10^7CFU/g); format: functional, CO92
[9] = test system: Yersinia pestis; assay: Antibacterial activity against Yersinia pestis Colorado 92 infected in African green monkey B6127 model assessed as bacterial burden in brain at 25 mg/kg, iv administered within 6 hrs post onset of sustained fever as 30 mins infusion for 10 days (reference value: 1.9 10^6CFU/g); format: functional, CO92
[10] = test system: Yersinia pestis; assay: Antibacterial activity against Yersinia pestis Colorado 92 infected in African green monkey B6872 model assessed as bacterial burden in tracheobronchial lymph nodes at 25 mg/kg, iv administered within 6 hrs post onset of sustained fever as 30 mins infusion for 5 days (reference value: 7.7 10^9CFU/g); format: functional, organism-based; settings: CO92, Lymph node
[11] = test system: African green monkey; assay: Toxicity in African green monkey 7929 model infected with Yersinia pestis Colorado 92 assessed as serum lactate dehydrogenase level at 25 mg/kg, iv administered within 6 hrs post onset of sustained fever as 30 mins infusion for 10 days (reference value: 653 IU/L); format: organism-based; settings: chlorocebus sabaeus, in vivo
[12] = test system: Yersinia pestis; assay: Antibacterial activity against Yersinia pestis Colorado 92 infected in African green monkey C2149 model assessed as bacterial burden in liver at 6.25 mg/kg, iv administered within 6 hrs post onset of sustained fever as 30 mins infusion for 5 days (reference value: 5.2 10^8CFU/g); format: functional, CO92
[13] = test system: Yersinia pestis; assay: Antibacterial activity against Yersinia pestis Colorado 92 infected in African green monkey B6960 model assessed as bacterial burden in tracheobronchial lymph nodes at 6.25 mg/kg, iv administered within 6 hrs post onset of sustained fever as 30 mins infusion for 5 days (reference value: 7.7 10^9CFU/g); format: functional, CO92, Lymph node
[14] = test system: Yersinia pestis; assay: Antibacterial activity against Yersinia pestis Colorado 92 infected in African green monkey B6783 model assessed as bacterial burden in kidney at 12.5 mg/kg, iv administered within 6 hrs post onset of sustained fever as 30 mins infusion for 5 days (reference value: 7.1 10^7CFU/g); format: functional, CO92
[15] = test system: Yersinia pestis; assay: Antibacterial activity against Yersinia pestis Colorado 92 infected in African green monkey B6436 model assessed as bacterial burden in liver at 25 mg/kg, iv administered within 6 hrs post onset of sustained fever as 30 mins infusion for 5 days (reference value: 5.2 10^8CFU/g); format: functional, organism-based; settings: CO92
[16] = test system: African green monkey; assay: Toxicity in African green monkey B6140 model infected with Yersinia pestis Colorado 92 assessed as serum gamma glutamyl-transferase level at 25 mg/kg, iv administered within 6 hrs post onset of sustained fever as 30 mins infusion for 10 days (reference value: 55 IU/L); format: organism-based; settings: chlorocebus sabaeus, in vivo
[17] = test system: African green monkey; assay: Toxicity in African green monkey B6127 model infected with Yersinia pestis Colorado 92 assessed as weight loss at 25 mg/kg, iv administered within 6 hrs post onset of sustained fever as 30 mins infusion for 10 days measured from day 7 to 14 post dose; format: organism-based; settings: chlorocebus sabaeus, in vivo
[18] = Toxicity in African green monkey 7643 model infected with Yersinia pestis Colorado 92 assessed as total white blood cell count at 25 mg/kg, iv administered within 6 hrs post onset of sustained fever as 30 mins infusion for 10 days (reference value: 6.1 10^3/microL); format: organism-based; settings: chlorocebus aethiops, in vivo
[19] = test system: Yersinia pestis; assay: Antibacterial activity against Yersinia pestis Colorado 92 infected in African green monkey B6436 model assessed as bacterial burden in blood at 25 mg/kg, iv administered within 6 hrs post onset of sustained fever as 30 mins infusion for 5 days (reference value: 1.2 10^7CFU/ml); format: functional, organism-based; settings: CO92
[20] = test system: Yersinia pestis; assay: Antibacterial activity against Yersinia pestis Colorado 92 infected in African green monkey B6872 model assessed as bacterial burden in liver at 25 mg/kg, iv administered within 6 hrs post onset of sustained fever as 30 mins infusion for 5 days (reference value: 5.2 10^8CFU/g); format: functional, organism-based; settings: CO92
[21] = test system: Yersinia pestis; assay: Antibacterial activity against Yersinia pestis Colorado 92 infected in African green monkey 8047 model assessed as bacterial burden in spleen at 6.25 mg/kg, iv administered within 6 hrs post onset of sustained fever as 30 mins infusion for 10 days (reference value: 1.6 10^9CFU/g); format: functional, CO92
[22] = test system: Yersinia pestis; assay: Antibacterial activity against Yersinia pestis Colorado 92 infected in African green monkey 8047 model assessed as bacterial burden in kidney at 6.25 mg/kg, iv administered within 6 hrs post onset of sustained fever as 30 mins infusion for 10 days (reference value: 7.1 10^7CFU/g); format: functional, CO92
[23] = test system: African green monkey; assay: Toxicity in African green monkey 7972 model infected with Yersinia pestis Colorado 92 assessed as serum alanine aminotransferase level at 25 mg/kg, iv administered within 6 hrs post onset of sustained fever as 30 mins infusion for 10 days (reference value: 30 IU/L); format: organism-based; settings: chlorocebus sabaeus, in vivo
[24] = test system: African green monkey; assay: Toxicity in African green monkey B5994 model infected with Yersinia pestis Colorado 92 assessed as serum lactate dehydrogenase level at 25 mg/kg, iv administered within 6 hrs post onset of sustained fever as 30 mins infusion for 10 days (reference value: 364 IU/L); format: organism-based; settings: chlorocebus sabaeus, in vivo
[25] = test system: Yersinia pestis; assay: Antibacterial activity against Yersinia pestis Colorado 92 infected in African green monkey C2149 model assessed as bacterial burden in brain at 6.25 mg/kg, iv administered within 6 hrs post onset of sustained fever as 30 mins infusion for 5 days (reference value: 1.9 10^6CFU/g); format: functional, CO92

For CN[C@@H]1[C@@H](O)[C@@H](O[C@@H]2[C@@H](O)[C@H](O[C@H]3OC(CNCCO)=CC[C@H]3N)[C@@H](N)C[C@H]2NC(=O)[C@@H](O)CCN)OC[C@]1(C)O [PLAZOMICIN], which Activity [1] is on record?
The Activity was 63 IU/L.

What about the Activity [2] of the same molecule?
Its Activity is 0.55 mg/dL.

What about the Activity [3] of the same molecule?
The Activity was 60 CFU/g.

What about the half-life [4] of the same molecule?
The half-life was 1.8 h.

What about the Activity [5] of the same molecule?
The Activity was 0.6 mg/dL.

And the Activity [6]?
Its Activity is 30 CFU/g.

What about the Activity [7] of the same molecule?
Its Activity is 38 CFU/g.

And the Activity [8]?
Its Activity is 25 CFU/g.

What about the Activity [9] of the same molecule?
Its Activity is 39 CFU/g.

And the Activity [10]?
Its Activity is “Below limit of detection”.

And the Activity [11]?
Its Activity is 496 IU/L.

What about the Activity [12] of the same molecule?
The Activity was 1 ×10⁶ CFU/g.

What about the Activity [13] of the same molecule?
The Activity was 1.6 ×10⁷ CFU/g.

What about the Activity [14] of the same molecule?
The Activity was 76 CFU/g.

What about the Activity [15] of the same molecule?
The Activity was “Below limit of detection”.

What about the Activity [16] of the same molecule?
Its Activity is 39 IU/L.

And the Activity [17]?
Its Activity is “Toxic”.

And the Activity [18]?
The Activity was 5.7 ×10³ /uL.

What about the Activity [19] of the same molecule?
Its Activity is “Below limit of detection”.

What about the Activity [20] of the same molecule?
Its Activity is “Below limit of detection”.

And the Activity [21]?
The Activity was 19 CFU/g.

What about the Activity [22] of the same molecule?
Its Activity is 32 CFU/g.

What about the Activity [23] of the same molecule?
Its Activity is 36 IU/L.

And the Activity [24]?
The Activity was 403 IU/L.

And the Activity [25]?
Its Activity is 46 CFU/g.
